Data published in US20090149469A1, “Phenyl-[4-(3-phenyl-1h-pyrazol-4-yl)-pyrimidin-2-yl]-amine derivatives as igf-ir inhibitors” (priority 2004, published 2009).

Target: T1, human IGF-IR (Homo sapiens, UniProt P08069)
T1 construct: complete human IGF-IR cDNA: GenBank Acc; No. NM_000875; expressed in transfected cells; host or cells: NIH-3T3 mouse fibroblasts
Test: cellular Capture ELISA: IGF-I induced autophosphorylation of IGF-IR in NIH-3T3 cells transfected with human IGF-IR
Format: cell-based
Conditions: by the methods described above
Experimental: In this assay the activity of the compounds of the invention against Insulin-like growth factor I (IGF-1) induced autophosphorylation of the IGF-IR is determined. The assay is conducted as follows: For the assay NIH-3T3 mouse fibroblasts transfected with human IGF-IR cDNA (complete human IGF-IR cDNA: GenBank Acc. No. NM_000875), prepared as described in Kato et al., J. Biol. Chem. 268, 2655-61, 1993, are used. The cells which overexpress human IGF-IR are cultured in Dulbecco's minimal essential (DMEM) medium, containing 10% Fetal Calf Serum (FCS). For the assay 5,000 cells/well are plated on day 1 on 96-well plates (Costar #3595) in normal growth medium and incubated for 2 days at 37° C. in a standard CO2 cell incubator. […] On day 3 the medium is discarded and the cells are incubated for 24 h in minimal medium (DMEM, containing 0.5% FCS). […]
90 μl/well AP substrate (CDP-Star; obtained from Tropix; Cat. No.: MS100RY) are then added and the plates are incubated for 45 min at RT in the dark, followed by measuring AP activity in a Packard Top Count Microplate Scintillation Counter. The IC50 values for the compounds of formula I are calculated via linear regression analysis using the GraphPad Instat program (GraphPad Software, USA). […]

T1 sequence (P08069 31-1367): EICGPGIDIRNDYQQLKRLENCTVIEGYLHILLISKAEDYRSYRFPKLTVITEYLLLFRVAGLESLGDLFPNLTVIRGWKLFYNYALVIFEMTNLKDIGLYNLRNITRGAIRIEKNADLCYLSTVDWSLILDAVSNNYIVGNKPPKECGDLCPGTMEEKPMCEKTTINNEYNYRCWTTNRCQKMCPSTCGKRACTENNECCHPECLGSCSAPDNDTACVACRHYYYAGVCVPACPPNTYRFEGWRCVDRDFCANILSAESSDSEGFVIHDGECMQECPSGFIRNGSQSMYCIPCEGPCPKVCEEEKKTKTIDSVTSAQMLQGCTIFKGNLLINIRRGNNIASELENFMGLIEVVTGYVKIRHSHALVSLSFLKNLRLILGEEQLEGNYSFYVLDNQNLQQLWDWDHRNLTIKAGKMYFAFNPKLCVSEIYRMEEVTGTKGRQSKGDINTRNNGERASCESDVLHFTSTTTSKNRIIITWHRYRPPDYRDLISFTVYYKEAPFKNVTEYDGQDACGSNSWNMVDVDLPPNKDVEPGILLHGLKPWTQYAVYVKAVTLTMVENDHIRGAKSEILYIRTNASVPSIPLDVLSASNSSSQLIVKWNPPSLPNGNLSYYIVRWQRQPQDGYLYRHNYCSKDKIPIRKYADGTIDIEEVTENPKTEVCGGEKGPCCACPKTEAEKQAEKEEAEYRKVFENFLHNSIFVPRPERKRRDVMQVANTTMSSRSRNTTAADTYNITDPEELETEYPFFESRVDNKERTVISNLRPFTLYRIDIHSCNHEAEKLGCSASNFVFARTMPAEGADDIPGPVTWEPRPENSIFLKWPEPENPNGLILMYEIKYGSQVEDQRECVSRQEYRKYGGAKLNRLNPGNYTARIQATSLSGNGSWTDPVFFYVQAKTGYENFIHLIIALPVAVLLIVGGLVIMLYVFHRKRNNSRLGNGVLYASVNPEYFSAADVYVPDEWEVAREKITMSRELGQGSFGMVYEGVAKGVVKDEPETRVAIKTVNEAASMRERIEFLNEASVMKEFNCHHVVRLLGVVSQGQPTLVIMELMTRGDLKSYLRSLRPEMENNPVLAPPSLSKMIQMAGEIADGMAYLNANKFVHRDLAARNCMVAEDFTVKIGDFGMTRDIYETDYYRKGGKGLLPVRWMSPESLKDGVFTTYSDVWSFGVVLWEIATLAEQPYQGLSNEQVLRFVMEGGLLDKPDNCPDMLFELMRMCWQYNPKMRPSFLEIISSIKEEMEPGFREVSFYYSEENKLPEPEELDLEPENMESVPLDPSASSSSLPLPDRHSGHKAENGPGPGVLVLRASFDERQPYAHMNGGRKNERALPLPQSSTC

inhibition of IGF-1R (in words): shows inhibition
SMILES: CN(C)CCOc1ccc(Nc2nccc(-c3c[nH]nc3-c3ccc(OCc4ccccc4)cc3)n2)cc1 [Example 6, {4-[3-(4-Benzyloxy-phenyl)-1H-pyrazol-4-yl]-pyrimidin-2-yl}-[4-(2-dimethylamino-ethoxy)-phenyl]-amine]
